Reference: article PMC5640712 (Frontiers in Microbiology, 2017)

Columns and labels:
[1] = target: T1, Trypsin (porcine pancreas, Sigma-Aldrich) (Sus scrofa, UniProt P00761); assay: Trypsin inhibition (IC50 measurement); type: biochemical; settings: at 1 h; 25°C; hydrolysis followed every 2 min for 1 h; inhibitor from 0 to 81.6 mM (so in the source); tested sample is purified Psp mixture, about 80% Psp A
T1 construct: purchased Sigma-Aldrich; host or cells: porcine pancreas
Procedure: Trypsin (porcine pancreas, Sigma-Aldrich) activity was measured at 25°C in a reaction mixture that contained from 0 to 81.6 mM leupeptin or pseudospumigin A and the hydrolysis was followed at every 2 min for 1 h, as described earlier (Liu et al., [2015]).

[2] = system: trypsin; settings: commercial trypsin inhibitor; ref Aoyagi et al., 1969; Kurinov and Harrison, 1996; cited from earlier work
Text: Figure 6 Time dependence of trypsin inhibition efficiency (IC50) of pseudospumigin A [•, Psp A (3) + other Psp variants], nostosin A (♦, Ns A) and spumigin E (□, Sp A, from Fewer et al., [2013]). […] Time dependent inhibition is ...

T1 sequence (P00761 9-231): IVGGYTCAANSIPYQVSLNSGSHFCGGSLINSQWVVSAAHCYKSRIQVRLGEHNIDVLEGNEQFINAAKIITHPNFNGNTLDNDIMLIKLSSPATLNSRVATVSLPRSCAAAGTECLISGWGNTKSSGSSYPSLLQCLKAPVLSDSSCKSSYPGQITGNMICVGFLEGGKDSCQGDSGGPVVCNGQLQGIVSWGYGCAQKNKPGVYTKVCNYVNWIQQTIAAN

Molecule | IC50 [1] [µM] | time dependence of trypsin interaction [2]
CC[C@H](C)[C@H](NC(=O)[C@@H](CCc1ccc(O)cc1)NC(=O)[C@H](O)Cc1ccc(O)cc1)C(=O)NC(C=O)CCCNC(=N)N (some centres unmarked) [Pseudospumigin A] | 4.5 | 
Ac-Leu-Leu-Argininal [leupeptin] |  | interacts with trypsin without time dependency
